This is an account of results in patent publication US20140113904A1, “TREATMENT OF CANCER WITH TOR KINASE INHIBITORS” (SIGNAL PHARMACEUTICALS, LLC, priority 2012, published 2014).

Like-named read-outs stand apart in the source and are kept apart here.

Series [1] deals with PC3 prostate cancer cell lines. Description: PC3 cellular activity: proliferation. As to conditions: Homo sapiens, PC-3, read-out: PC3 Cellular Activity Prolif IC50.
Series [2] can be described thus: Oral bioavailability. Further details: species or system rodent. As to conditions: in vivo.
Series [3] has as its target mTOR (Homo sapiens, UniProt P42345). Briefly: mTOR inhibition (Table 3). It counts as biochemical. As to conditions: average of 2 or more experiments.
The test system of series [4] is pS6. Briefly: PC3 cellular activity: pS6 (mTORC1) inhibition. The conditions noted are these: Homo sapiens, PC-3; average of 2 or more experiments. It counts as cell-based.
Series [5] has as its system pAktS473. Description: PC3 cellular activity: pAktS473 (mTORC2) inhibition. It counts as cell-based. The conditions noted are these: Homo sapiens, PC-3; average of 2 or more experiments; read-out: PC3 Cellular Activity pAkt IC50.
The subject of series [6] is pAktS473. Briefly: Tumor pAktS473 after single dose of Compound 6 (PK/PD). As to conditions: Mus musculus, 30 mg/kg single dose. The class given is in vivo, mice.
Series [7] can be described thus: Compound 6 plasma and tumor levels (PK/PD). It counts as in vivo, mice. The conditions noted are these: 30 mg/kg single dose, by 24 h.
Series [8] has as its target FMS (Homo sapiens, UniProt P07333). Briefly: FMS concentration-response curve. The class given is biochemical.
Series [9] deals with pS6. Description: Tumor pS6 after single dose of Compound 6 (PK/PD). The class given is in vivo, mice. As to conditions: for inhibition at 30 mg/kg: Mus musculus, 30 mg/kg single dose.
The test system of series [10] is PC3 xenograft. The class given is in vivo.
Series [11] concerns the target 249 kinases. Description: Single point kinase selectivity assay against 249 kinases. It counts as biochemical. The conditions noted are these: 10 μM.
Series [12] can be described thus: Body weight in Compound 1 PC3 xenograft efficacy studies. It counts as in vivo, SCID mice. As to conditions: rapamycin 4 mg/kg, 3 weeks, data not shown. The procedure: The BID dose groups were dosed with a 10-hour separation between the morning and evening doses. […] At the end of each study, plasma and/or tumor samples were collected.
Initial body weights were recorded prior to the initiation of treatment using a digital scale. The percent body weight change during the course of the study was calculated using initial body weight measurements. Body weights of each animal were measured twice a week at the same time that tumor measurements were taken. Body weights were measured more frequently if significant decreases were noted during the course of the study.

The test system of series [13] is S6RP(S235/S236). Briefly: Phospho-S6RP(S235/S236) in PC3 cell lysates, MSD. The class given is cell-based, human. As to conditions: Homo sapiens, PC-3, 1 h, PC3 cells, 1 hour; two values; read-out: IC50 for inhibition of S6RP(S235/S236) phosphorylation. From the text:
(§1) The direct substrate for TORC1 was 4E-BP 1(T46) and indirect downstream substrate was S6RP(S235/S236). The direct substrate for TORC2 was Akt(S473) and indirect downstream substrates measured were GSK3β(S9) and PRAS40(T246). Additionally, the phosphorylation status of Akt(T308), a phosphorylation site for PDK1 was monitored.
(§2) MSD® biomarker detection assays provide a rapid and convenient method for measuring the total and phosphorylated levels of protein targets within a single small volume sample. These assays are available in both single-plex and multiplex formats. In a single-plex assay, an antibody for a specific protein target is coated on one electrode (or spot) per well. […] MSD Read Buffer that provides the appropriate chemical environment for ECL is added and the plate is read using an MSD SECTOR™ Imager. […] The instrument measures intensity of the emitted light to afford a quantitative measure of the amount of phosphorylated Akt or S6RP present in the sample. […]
(§3) The assay plate was incubated with 150 μL of MSD Blocker A Solution for 1 hour with shaking at room temperature. […] Then 150 μL of 1×MSD Read Buffer T was added to each well. The plate was read on the SECTOR Imager plate reader. The Excel data was transferred to Activity Base and IC50 values were calculated.
(§4) All data was analyzed using XLfit from IDBS. […]

In series [14] the test system is 4E-BP1(T46). Description: Phospho-4E-BP1(T46) in PC3 cell lysates, Luminex multiplex. The class given is cell-based, human. The conditions noted are these: PC3 cells, up to concentrations of 10 μM.
Text: as §1
The multiplex Luminex assay format differs from conventional enzyme-linked immunosorbent assay (ELISA) in that the multiplex capture antibody is attached to a polystyrene bead whereas the ELISA capture antibody is attached to the microplate well. The use of the suspension bead-based technology enables the multiplexing capabilities of the Luminex assays. The xMAP® technology uses 5.6 micron polystyrene microspheres, which are internally dyed with red and infrared fluorophores of differing intensities. Each bead is given a unique number, or bead region, allowing differentiation of one bead from another. Beads covalently bound to different specific antibodies can be mixed in the same assay, utilizing a 96-well microplate format. At the completion of the sandwich immunoassay, beads can be read, using the Luminex 100™ or Luminex 200 detection system, in single-file by dual lasers for classification and quantification of each analyte. […]

Series [15] has as its system Akt(S473). Briefly: Phospho-Akt(S473) in PC3 cell lysates, MSD. The class given is cell-based, human. As to conditions: PC3 cells, data not shown.
Text: as §1, §2, §3, §4

FMS, sequence (P07333 20-972, species assumed): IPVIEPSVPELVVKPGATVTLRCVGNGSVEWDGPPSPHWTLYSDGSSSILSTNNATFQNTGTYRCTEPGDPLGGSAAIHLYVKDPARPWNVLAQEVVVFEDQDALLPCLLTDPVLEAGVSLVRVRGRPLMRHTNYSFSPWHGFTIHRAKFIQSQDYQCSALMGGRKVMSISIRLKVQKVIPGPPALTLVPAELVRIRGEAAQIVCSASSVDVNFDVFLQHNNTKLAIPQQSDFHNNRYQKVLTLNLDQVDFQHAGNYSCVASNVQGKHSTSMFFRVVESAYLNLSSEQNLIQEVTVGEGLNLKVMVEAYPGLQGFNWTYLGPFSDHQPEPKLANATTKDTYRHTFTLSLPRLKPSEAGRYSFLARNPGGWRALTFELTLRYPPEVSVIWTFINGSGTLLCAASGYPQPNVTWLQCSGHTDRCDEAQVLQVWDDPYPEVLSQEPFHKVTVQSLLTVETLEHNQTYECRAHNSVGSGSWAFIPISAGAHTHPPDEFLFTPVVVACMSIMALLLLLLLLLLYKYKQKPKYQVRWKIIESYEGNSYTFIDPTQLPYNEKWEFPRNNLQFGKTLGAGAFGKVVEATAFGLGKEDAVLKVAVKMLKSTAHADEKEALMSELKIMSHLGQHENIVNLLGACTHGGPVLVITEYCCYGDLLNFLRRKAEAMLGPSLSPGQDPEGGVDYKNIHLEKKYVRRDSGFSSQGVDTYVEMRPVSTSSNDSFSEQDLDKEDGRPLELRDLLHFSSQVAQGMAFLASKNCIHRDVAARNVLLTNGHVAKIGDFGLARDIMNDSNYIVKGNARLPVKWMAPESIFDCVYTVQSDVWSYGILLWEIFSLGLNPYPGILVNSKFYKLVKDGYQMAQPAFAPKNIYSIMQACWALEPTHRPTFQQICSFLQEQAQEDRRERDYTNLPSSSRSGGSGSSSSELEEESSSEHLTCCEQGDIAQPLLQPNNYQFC

`O=C1CN(CCC2CCOCC2)c2nc(-c3ccc(-c4nc[nH]n4)cc3)cnc2N1` [Compound 4]: in series [1], the IC50 stood at 148 nM. The oral bioavailability entry in [2] was “poor oral bioavailability”.
For the molecule `CC(C)(O)c1ccc(-c2cnc3[nH]c(=O)n(CC4CCOCC4)c3n2)cn1` [Compound 5], the IC50 in series [3] was 176 nM; in series [4] it was 2410 nM; in [1] it was 4180 nM; in series [5] it was 2550 nM.
Turning to `O=c1[nH]c2ncc(-c3ccc(-c4nc[nH]n4)cc3)nc2n1CCC1CCOCC1` [Compound 3], the IC50 in series [3] was found to be 2 nM; in series [4] it was 40 nM; in series [1], 224 nM; in [5], 18 nM. For the same molecule, the oral bioavailability entry in [2] is “poor oral bioavailability”.
As to `CC(C)(O)c1ccc(-c2cnc3c(n2)N(CC2CCOCC2)CC(=O)N3)cn1` [Compound 6], the inhibition at 30 mg/kg in series [6] (2-8 h) was 53 to 77%; in [6] (24 h) it was 28%; in [9] (2-8 h) it was 87 to 93%; in series [9] (24 h) it was 43%. Also, the “plasma and tumor level of compound” value in series [7] is on record as “almost completely cleared”. Further, the IC50 in [8] was found to be 2700 nM. In series [9] (100 mg/kg single dose, through 24 hours), the “biomarker (pS6, pAktS473) inhibition in tumor” value is on record as “full biomarker inhibition”. The figures for the “tumor volume inhibition compared to vehicle control” value in series [10] (10 mg/kg oral once daily), in series [10] (25 mg/kg oral once daily) and in [10] (50 mg/kg oral once daily) were 18%, 63% and 84%, respectively. For the same molecule, the tolerability result in series [10] (all dose levels and schedules, 3 weeks of treatment) was “well tolerated”. Besides, the PC3 tumor growth entry in [10] (oral, once or twice daily or every second day) was “significantly inhibited PC3 tumor growth”. For the same molecule, in [2], the oral bioavailability result was “excellent oral bioavailablity”. Further, the “kinases other than mTOR inhibited >80%” value in series [11] is recorded as “only one kinase other than mTOR was inhibited >80%”.
As for `CO[C@H]1C[C@@H]2CC[C@@H](C)[C@@](O)(O2)C(=O)C(=O)N2CCCC[C@H]2C(=O)O[C@H]([C@H](C)C[C@@H]2CC[C@@H](O)[C@H](OC)C2)CC(=O)[C@H](C)/C=C(\C)[C@@H](O)[C@@H](OC)C(=O)[C@H](C)C[C@H](C)/C=C/C=C/C=C/1C` [rapamycin, reference compound], the “change in body weight” value in series [12] was “No significant change”. Moreover, the IC50 in [13] was found to be 0.019 nM. Further, the “inhibition of 4E-BP1(T46) phosphorylation” value in series [14] was “not inhibited”. In addition, in series [15], the “inhibition of Akt(S473) phosphorylation” value is reported as “did not inhibit”.

As a reminder, the inhibition is how much of the control response was suppressed. A high value points to a strong effect.
